Results as given in US7786287B2, “Hepatitis C virus assay systems” (priority 2002, dated 2010).

Biological target: T1, beta-lactamase (Escherichia coli, UniProt P62593, A182V/V82I)
T1 construct: HCV core N-terminal partial region (first 12 codons, about 36 nucleotides of core), then a 3-residue linker (Gly-Arg-Ala) and an added Met before His24 of the enzyme; expressed in transfected cells; host or cells: replicon-enhanced Huh-7 cells transfected with HCV replicon RNA encoding beta-lactamase
Experiment: HCV replicon beta-lactamase assay: signal-to-background with clavulanic acid
Format: cell-based
Details: for Δ: 1.23 at 0.00 μM, Δ not defined; for S/B: 3.5 at 0.00 μM
Protocol: Clavulanic acid can be used to enhance the signal-to-background ratio from the beta-lactamase reporter system wherein, a larger signal to noise ratio facilitates detection of HCV replication inhibitors by better reflecting changes in the intracellular concentration of beta-lactamase.
Prior to use, frozen cells are thawed fresh in the morning of the assay or the day before and diluted in pre-warmed media to 40,000 cells/ml. Cell suspension (50 μl) is plated into 384-well micro-titer plates. The cells are allowed to recover for at least 6 hours at 37° C. in the plates before beginning an assay. 1 μl of 25 μM clavulanic acid in PBS and 0.25 μl of 500 μM test compounds in DMSO are added to the cells. The assay cell plates are then incubated for 24 hours at 37° C. To the assay plate, 10 μl of 6×CCF4/AM substrate in loading buffer is added with a Multidrop (Labsystems), and the plate incubated for 90 minutes at ambient temperature. The plate is then read from the bottom on a Teacn Spectrafluor Plus (340 nm excitation, 460 nm and 530 nm emissions).
In the example described below, clavulanic acid is present throughout the assay at a concentration that slightly reduces beta-lactamase activity instead of using it at high concentration that would complete inhibit beta-lactamase activity.
Table 2 provides results obtained using different concentrations of clavulanic acid and an HCV NS5B inhibitor.

O=C(O)[C@H]1/C(=C/CO)O[C@@H]2CC(=O)N21 [clavulanic acid]
Δ ([CA] 0.13 μM): 1.22
S/B ([CA] 0.13 μM): 5.7
Δ ([CA] 0.25 μM): 1.17
S/B ([CA] 0.25 μM): 6.0
Δ ([CA] 0.50 μM): 0.97
S/B ([CA] 0.50 μM): 6.3
Δ ([CA] 1.00 μM): 0.81
S/B ([CA] 1.00 μM): 5.4
